Measurements reported in PMC3199943, “Screening the MayBridge Rule of 3 Fragment Library for Compounds That Interact with the Trypanosoma brucei myo-Inositol-3-Phosphate Synthase and/or Show Trypanocidal Activity” (Molecular Biology International, 2011).
Where two headings read alike, the source gives them in different places.

Legend:
TbINO1 = target: T1, TbINO1 (Trypanosoma brucei brucei, UniProt Q5QQ46); test: biochemical; format: binding; settings: for Tb Ino1 Tm Shift [˚C]: Supplementary Table 1, compound 1mM, mean ± SD from Boltzman curve fitting
T1 sequence (Q5QQ46 1-528): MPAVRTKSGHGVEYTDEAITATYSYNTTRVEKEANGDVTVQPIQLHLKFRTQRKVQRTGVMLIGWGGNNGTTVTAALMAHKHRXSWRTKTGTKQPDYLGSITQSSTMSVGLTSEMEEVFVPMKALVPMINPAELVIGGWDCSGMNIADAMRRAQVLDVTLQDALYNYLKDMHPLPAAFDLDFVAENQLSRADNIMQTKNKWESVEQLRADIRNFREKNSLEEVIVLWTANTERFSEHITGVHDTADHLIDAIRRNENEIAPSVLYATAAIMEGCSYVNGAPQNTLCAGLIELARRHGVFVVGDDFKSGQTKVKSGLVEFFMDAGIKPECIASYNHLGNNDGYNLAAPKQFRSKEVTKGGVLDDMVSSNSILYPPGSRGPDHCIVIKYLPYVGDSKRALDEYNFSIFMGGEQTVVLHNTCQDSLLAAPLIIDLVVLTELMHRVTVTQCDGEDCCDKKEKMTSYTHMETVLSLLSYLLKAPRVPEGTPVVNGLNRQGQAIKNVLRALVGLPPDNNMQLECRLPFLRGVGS

HeLa cells = test: cells; settings: for viability at 500 µM: Homo sapiens, HeLa, 65 h; for HeLa Cells Alamar Blue: Supplementary Table 1, compound 0.5 mM, percentage of controls, mean ± SD (n=3) or SE (n=2)
Method in brief: (§1)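 HeLa and A549 cells grown in DMEM with 10% FCS and 2 mM L-Glutamine were seeded at 2 × 10^4 cells/well. They were exposed to compounds for ~65 hours, then Alamar Blue was added for a further 5 hours to measure viability.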

A549 cells = test: Cytotoxicity against A549 cells, Alamar Blue; format: cell-based; settings: Supplementary Table 1, compound 0.5 mM, percentage of controls (n=1); for viability at 500 µM: Homo sapiens, A549, 65 h
Method in brief: as §1

[1] = read-out: Tb Ino1 Tm Shift [˚C]
[2] = read-out: HeLa Cells Alamar Blue
[3] = read-out: HeLa Cells Alamar Blue (% survival)

| Compound | ΔTm at 1000 µM (TbINO1; [1]) | viability at 500 µM (HeLa cells; [2]) | viability at 500 µM (A549 cells) | Tb Ino1 Tm Shift [˚C] (TbINO1) | HeLa Cells Alamar Blue (HeLa cells) | A549 Cells Alamar Blue (A549 cells) | ΔTm at 1000 µM (TbINO1; read-out: TbIno1 Tm shift [°C]) | viability at 500 µM (HeLa cells; [3]) | ΔTm at 1000 µM (TbINO1; compound 1 mM, mean ± SD (n = 3), read-out: TbIno1 Tm shift [°C]) |
| --- | --- | --- | --- | --- | --- | --- | --- | --- | --- |
| OCc1csc(-c2cccnc2)n1 [compound 566, (2‐pyridin‐3‐yl‐1,3‐thiazol‐4‐yl)methanol] | 0.29 ± 0.07 °C | 88.4 ± 18.2% | 104% | – | – | – | – | – | – |
| OCc1ccncc1 [compound 18, 4‐pyridinylmethanol] | 0.36 ± 0.07 °C | 104 ± 3.9% | 102% | – | – | – | – | – | – |
| Cc1ccc(C(=O)O)c(N)c1 [compound 196, 2‐amino‐4‐methylbenzoic acid] | 1.1 ± 0.06 °C | 97.4 ± 4.1% | 36.7% | – | – | – | – | – | – |
| OCc1ccccc1Cl [compound 143, (2‐chlorophenyl)methanol] | 0.46 ± 0.05 °C | 93.3 ± 6.6% | 109% | – | – | – | – | – | – |
| Cc1ccc[nH]c1=O [compound 17, 3‐methyl‐1,2‐dihydropyridin‐2‐one] | 0.81 ± 0.08 °C | 106 ± 11.4% | 87.2% | – | – | – | – | – | – |
| CNCc1ccncc1 [compound 56, N‐methyl‐N‐(4‐pyridinylmethyl)amine] | 0.01 ± 0.08 °C | 87.9 ± 9.9% | 78.5% | – | – | – | – | – | – |
| NCc1cccc(CN2CCCC2)c1 [compound 550, [3‐(1‐pyrrolidinylmethyl)phenyl]methanamine] | – | – | – | 0.03 ± 0.07 °C | 47.8 ± 11.7 percentage of controls | 108.7 percentage of controls | – | – | – |
| O=C(O)c1ccc2ncsc2c1 [compound 444, 1,3‐benzothiazole‐6‐carboxylic acid] | 0.73 ± 0.06 °C | 92 ± 9.7% | 63.5% | – | – | – | – | – | – |
| CC(=O)NCc1cccnc1 [compound 188, N1‐(3‐pyridylmethyl)acetamide] | 0.05 ± 0.07 °C | 104 ± 7.3% | 69.5% | – | – | – | – | – | – |
| Cc1ccc(CN)cc1Cl [compound 233, 3‐chloro‐4‐methylbenzylamine] | 0.11 ± 0.08 °C | 91.7 ± 12.6% | 163% | – | – | – | – | – | – |
| Cn1nc2ccccc2c1CO [compound 285, (2‐methyl‐2H‐indazol‐3‐yl)methanol] | 0.29 ± 0.07 °C | 73.4 ± 10.6% | 67.6% | – | – | – | – | – | – |
| CC(=O)c1c(O)cccc1O [compound 204, 1-(2,6-dihydroxyphenyl)ethan-1-one] | – | 36.3 ± 12.5% | 34.4% | – | – | – | 2.35 ± 0.06 °C | 36.3 ± 12.5% | – |
| N#Cc1scc2c1OCCO2 [compound 327, 2,3‐dihydrothieno[3,4‐b][1,4]dioxine‐5‐carbonitrile] | – | – | – | 0.12 ± 0.06 °C | 115.5 ± 14.4 percentage of controls | 121.1 percentage of controls | – | – | – |
| Cc1cc(CO)nn1C [compound 76, (1,5‐dimethyl‐1H‐pyrazol‐3‐yl)methanol] | 0.56 ± 0.08 °C | 99.6 ± 4.5% | 100% | – | – | – | – | – | – |
| Cc1ccc(C#N)c(N)c1 [compound 97, 2-amino-4-methylbenzonitrile] | – | 81.4 ± 7.4% | 96.2% | – | – | – | 1.58 ± 0.07 °C | 81.4 ± 7.4% | – |
| Nc1cc(F)ccc1-n1ccnc1 [compound 420, 5‐fluoro‐2‐(1H‐imidazol‐1‐yl)aniline] | 0.36 ± 0.07 °C | 98.2 ± 10.9% | 100% | – | – | – | – | – | – |
| O=C(O)c1ccccc1-n1cccc1 [compound 513, 2-(1H-pyrrol-1-yl)benzoic acid] | – | 98.5 ± 6.5% | 64.4% | – | – | – | – | 98.5 ± 6.5% | 3.14 ± 0.09 °C |
| Nc1ccc2ncsc2c1 [compound 191, 1,3‐benzothiazol‐6‐amine] | 0.44 ± 0.11 °C | 76.3 ± 15.1% | 38% | – | – | – | – | – | – |
| COC(=O)c1sccc1O [compound 247, methyl 3‐hydroxythiophene‐2‐carboxylate] | – | – | – | 0.2 ± 0.07 °C | 95.4 ± 6.1 percentage of controls | 108.7 percentage of controls | – | – | – |
